Tested on: PgACC glutamate activity
Assay: PgACC glutamate activity by 2D-JPRESS 1H MRS at 4T, pre- and post-treatment
Format: in vivo, human
Procedure: Glutamate response to memantine therapy in the PgACC was assessed by acquiring spectroscopic MRI pre- and post-treatment.
Healthy Control Participants were enrolled for spectroscopic neuro-imaging data acquisition to form a control group. Healthy controls (HC) were age, sex, and IQ-matched with enrolled ASD participants. HC participants were with no significant autistic traits, as screened by SRS-2 raw score of<60, and with no major psychopathology, as established by the K-SADS-E and confirmed by clinical diagnostic interview.
Data Acquisition—Proton spectra were acquired at 4T using a two-dimensional J-resolved (2D-JPRESS) ^1HMRS protocol. A 2D-JPRESS sequence was chosen to improve reliability for spectral fitting of the metabolites(Gonenc et al., 2010; Moore et al., 2007), allow analysis of glutamate alone versus ratios or combined measures (e.g., Glx), and confirm that measured metabolic differences truly arise from differences in metabolic levels and not from T2 relaxation time differences. […] Data were collected in 12 TE-stepped spectra with the echo-time ranging from 30 to 250 ms in 20 ms increments, with TR=2s, averages=16, scan duration=7 minutes.
Data Processing: Spectral analysis was conducted in a fully automated fashion using the commercially available LCModel package (version 6.2-1F). After the 2D-JPRESS dataset was resolved into a series of one-dimensional spectra where each spectrum was modeled and fitted with GAMMA simulated96 J-resolved basis sets, glutamate activity levels were derived from the total integral across the J-series. Glutamate transverse relaxation time (T2) was obtained from the raw peak vs. TE decay curve fitted with Levenberg-Marquardt algorithm using an exponential decay function (for glutamate T2) convoluted with a polynomial function (for glutamate J-coupling) which was obtained from the GAMMA simulation run with previously measured spectral parameters (Govindaraju, Young, & Maudsley, 2000). Data quality was assessed by LCModel calculated Full Width Half Maximum (FWHM), Signal to Noise Ratio (SNR) and Cramer-Rao Lower Bounds (CRLB).
The primary outcome was analyzed using Pearson's chi-square test at the a priori defined significance level of 0.05. Secondary measures of efficacy were analyzed using mixed-effects regression models with robust standard errors to account for the repeated measures on each subject. The primary and secondary measures were compared between memantine versus placebo as well as between those with high versus normal baseline glutamate activity levels. Participants were categorized as having high versus normal glutamate activity levels at baseline using z-scores. The population mean and SD for z-score calculations were derived from healthy control glutamate activity levels (baseline and endpoint). Glutamate activity levels with z-scores≥1 were categorized as high glutamate activity levels, those with z-scores<1 and >−1 were categorized as normal glutamate activity levels and those with z-scores≤−1 were categorized as low glutamate activity levels. Changes in PgACC glutamate activity levels within groups were tested using paired t-tests and changes between groups were tested using two-sample t-tests. We also performed ROC curve analyses to determine the predictive utility of baseline PgACC glutamate activity levels in identifying treatment responders within the memantine and placebo groups. All analyses apart from the analysis of the primary outcome were considered exploratory. Analyses were performed using a modified intent-to-treat analysis set which included all randomized patients who were regarded exposed to study medication (completed at least two weeks of treatment) and had at least one follow-up assessment.

CC12CC3CC(C)(C1)CC(N)(C3)C2 [MEM, memantine]
PgACC Glutamate Activity BL (High-Glu ASD Sample, MEM Group N = 10, baseline): 109.1 ± 11.9 | PgACC Glutamate Activity EP (High-Glu ASD Sample, MEM Group N = 10, endpoint): 78.7 ± 13.6 | PgACC Glutamate Activity MD (High-Glu ASD Sample, MEM Group N = 10, mean difference BL to EP): −30.3 ± 23.3 | PgACC Glutamate Activity ASD vs. HC MD @ EP (High-Glu ASD Sample, MEM Group N=10 vs HC N = 13): −2.5 ± 34.3 | PgACC Glutamate Activity ASD vs. HC MD @ BL (High-Glu ASD Sample, MEM Group N=10 vs HC N = 16): −32.5 ± 32.4 | PgACC Glutamate Activity BL (High-Glu ASD Sample, MEM Responders N = 8, baseline): 111.1 ± 12.5 | PgACC Glutamate Activity EP (High-Glu ASD Sample, MEM Responders N = 8, endpoint): 75.8 ± 13.6 | PgACC Glutamate Activity MD (High-Glu ASD Sample, MEM Responders N = 8, mean difference BL to EP): −35.4 ± 23.5 | PgACC Glutamate Activity ASD vs. HC MD @ EP (High-Glu ASD Sample, MEM Responders N=8 vs HC N = 13): 0.5 ± 35.7 | PgACC Glutamate Activity ASD vs. HC MD @ BL (High-Glu ASD Sample, MEM Responders N=8 vs HC N = 16): −34.5 ± 34.4 | MD in Glu w/ Tx: MD MEM vs PBO (High-Glu ASD, MEM = 10 PBO = 8): −21.5 ± 37.3 | MD in Glu w/ Tx: MD H-Glu vs N-Glu (MEM Group, H-Glu N = 10 vs N-Glu N = 5): 32.2 ± 43.1 | PgACC Glutamate Activity BL (Normal-Glu ASD Sample, MEM Group/Non-Responders N = 5, baseline): 84.1 ± 8.6 | PgACC Glutamate Activity EP (Normal-Glu ASD Sample, MEM Group/Non-Responders N = 5, endpoint): 86.0 ± 2.8 | PgACC Glutamate Activity MD (Normal-Glu ASD Sample, MEM Group/Non-Responders N = 5, mean difference BL to EP): 1.9 ± 10.8 | PgACC Glutamate Activity ASD vs. HC MD @ EP (Normal-Glu ASD Sample, MEM Group/Non-Responders N=5 vs HC N = 13): −9.7 ± 37.2 | MD in Glu w/ Tx: MD MEM vs PBO (Normal-Glu ASD, MEM = 5): −6.3 ± 24.1 | PgACC Glutamate Activity ASD vs. HC MD @ BL (Unselected ASD Sample, MEM Group (MEM=19) vs HC N = 16): −19.8 ± 34.5^[MEM=19] | PgACC Glutamate Activity BL (Unselected ASD Sample, MEM Group N = 15, baseline, mean ± SD): 100.8 ± 16.1 | PgACC Glutamate Activity EP (Unselected ASD Sample, MEM Group N = 15, endpoint, mean ± SD): 81.2 ± 11.6 | PgACC Glutamate Activity MD (Unselected ASD Sample, MEM Group N = 15, mean difference BL to EP): −19.6 ± 25.1 | PgACC Glutamate Activity ASD vs. HC MD @ EP (Unselected ASD Sample, MEM Group N=15 vs HC N = 13): −4.9 ± 31.2 | PgACC Glutamate Activity BL (Unselected ASD Sample, MEM Non-responders N = 7, baseline): 88.9 ± 10.9 | PgACC Glutamate Activity EP (Unselected ASD Sample, MEM Non-responders N = 7, endpoint): 87.3 ± 3.9 | PgACC Glutamate Activity MD (Unselected ASD Sample, MEM Non-responders N = 7, mean difference BL to EP): −1.6 ± 10.7 | PgACC Glutamate Activity ASD vs. HC MD @ EP (Unselected ASD Sample, MEM Non-responders N=7 vs HC N = 13): −11.1 ± 33.1 | PgACC Glutamate Activity ASD vs. HC MD @ BL (Unselected ASD Sample, MEM Non-responders N=7 vs HC N = 16): −12.3 ± 34.9 | PgACC Glutamate Activity BL (Unselected ASD Sample, MEM Responders N = 8, baseline): 111.1 ± 12.5 | PgACC Glutamate Activity EP (Unselected ASD Sample, MEM Responders N = 8, endpoint): 75.8 ± 13.6 | PgACC Glutamate Activity MD (Unselected ASD Sample, MEM Responders N = 8, mean difference BL to EP): −35.4 ± 23.5 | PgACC Glutamate Activity ASD vs. HC MD @ EP (Unselected ASD Sample, MEM Responders N=8 vs HC N = 13): 0.48 ± 35.7 | PgACC Glutamate Activity ASD vs. HC MD @ BL (Unselected ASD Sample, MEM Responders N=8 vs HC N = 16): -34.5 ± 34.4 | MD in Glu w/ Tx: MD MEM vs PBO (Unselected ASD, MEM = 15, PBO = 16): −12.2 ± 38.3 | Magnitude of PgACC glutamate reduction, memantine versus placebo (high glutamate sample): significantly higher | PgACC glutamate activity with treatment versus HCs (high glutamate sample, memantine group): not significantly different from HCs | Change with treatment in PgACC glutamate activity, baseline to endpoint (high glutamate sample, memantine treated group): significant reduction | Change with treatment in PgACC glutamate activity, baseline to endpoint (normal-glutamate sample): did not change significantly | Change with treatment in PgACC glutamate activity, baseline to endpoint (unselected sample of ASD, memantine treated group): significant reduction

— patent US20240130675A1, “Methods for Treating Autism Spectrum Disorder” (The General Hospital Corporation, priority 2021, published 2024)
